The values that follow come from patent US11767298B2, “Substituted benzimidazoles as inhibitors of transforming growth factor-β kinase” (Duke University, priority 2016, dated 2023).

One data set deals with Huh7 cells. The experiment in a line: Huh7 cell viability / cytotoxicity. Format: cell-based, human. The following applies: concentrations up to 200 μM. As for the experimental part:
Cell-based anti-Plasmodium assays. For liver stage assays, 15,000 HepG2 or 8,000 Huh7 cells/well were added to 384-well microtiter plates using a multichannel pipette (Rainin). […] DMSO was used as the negative control. Following compound incubation at 37° C. for ˜1 hr, harvested luciferase-expressing P. berghei ANKA sporozoites were added to the plates at a density of 3,000 sporozoites/well. P. berghei ANKA sporozoites were obtained from harvesting the salivary glands of infected A. stephensi mosquitoes. The plates were spun for 10 min at 1,000 rpm, and then incubated at 37° C. for ˜45 hrs. […] After ˜45 hours at 37° C., liver cell viability was assessed using CellTiter-Fluor (Promega) and then parasite load was determined using Bright-Glo (Promega). The relative fluorescence and luminescence signal intensity of each well was evaluated with an EnVision System. The luminescence signal in the presence of compounds was normalized to the negative control (DMSO). Dose-response analysis was performed with GraphPad Prism to yield the reported EC50 values.
(§1) Specifically, their ability to inhibit P. berghei infection in two human hepatoma cell lines (HepG2 and Huh7) as well as cytotoxicity against HepG2 and Huh7 cells was determined as described above. Liver cell cytotoxicity was evaluated with two different commercially available assays, one that tests for intracellular protease activity with a fluorescence reporter and another that relies on the luminescent detection of total ATP.

Another data set deals with MINK1 (Homo sapiens, UniProt Q8N4C8). The experiment in a line: Kinase profiling (Dundee), MINK1. It is filed as biochemical. As for the experimental part: (§2) Kinase selectivity profiling. The selectivity profile of HS-206 to inhibit mammalian kinases was tested against a panel of 140 kinases at a single concentration of 10 μM. Tests were performed using a radiolabeld (^33P-ATP) filter-binding assay at the International Centre for Kinase Profiling at the University of Dundee, UK (http://www.kinase-screen.mrc.ac.uk/).
(§3) This panel contains members of all major kinase families, including tyrosine kinases (TK), tyrosine kinase-like (TKL), sterile serine/threonine (STE), and CDK/MAPK/GSK/CLK (CMGC). […] For these kinases, IC50 values were determined (Table 1).

In the next data set the test system is HepG2 cells. As to the kind of experiment: HepG2 cell viability / cytotoxicity. Format: cell-based, human. The note with it: HepG2; concentrations up to 200 μM. Here is the method:
(§4) Cell-based anti-Plasmodium assays. For liver stage assays, 15,000 HepG2 or 8,000 Huh7 cells/well were added to 384-well microtiter plates using a multichannel pipette (Rainin). After 2 hours at 37° C., compounds (0-100 μM) were added to cells in duplicate or triplicate in a final concentration of 1% DMSO. DMSO was used as the negative control. Following compound incubation at 37° C. for ˜1 hr, harvested luciferase-expressing P. berghei ANKA sporozoites were added to the plates at a density of 3,000 sporozoites/well. P. berghei ANKA sporozoites were obtained from harvesting the salivary glands of infected A. stephensi mosquitoes. The plates were spun for 10 min at 1,000 rpm, and then incubated at 37° C. for ˜45 hrs. […] After ˜45 hours at 37° C., liver cell viability was assessed using CellTiter-Fluor (Promega) and then parasite load was determined using Bright-Glo (Promega). The relative fluorescence and luminescence signal intensity of each well was evaluated with an EnVision System. The luminescence signal in the presence of compounds was normalized to the negative control (DMSO). Dose-response analysis was performed with GraphPad Prism to yield the reported EC50 values.
(§5) Anti-Plasmodium activity was evaluated in the parasite's liver stage using a previously reported high-throughput assay. In this assay, luciferase-expressing P. berghei (murine) parasites are used to infect human hepatoma cells (HepG2) and parasite load is assessed with a luminometer subsequent to evaluating HepG2 viability using a commercially available quantification kit that measures intracellular protease activity.
as §1

The next data set has as its target GFP-PfPK9 (Plasmodium falciparum, UniProt Q8IEG4). The experiment in a line: ATP-competitive binding assay (ATP-sepharose pull-down, FLECS). The note with it: GFP-PfPK9; Kd calculated from EC50 of ATP pull-down dose-response; read-out: Kd, app. Here is the method: Primary small-molecule screen. A small-molecule screen was performed similar to a previously reported fluorescence linked enzyme chemoproteomic strategy (FLECS). Briefly, HEK293-GFP-PfPK9 cells were grown in 182-cm^2 tissue culture flasks (Genesee Scientific) and harvested at ˜80% cell confluency. Before assays the culture medium was aspirated, cells were rinsed with ice cold PBS and then they were removed with a cell scraper. Cells were pelleted by centrifugation (2,000 rpm, 4° C., 2 min) and immediately lysed for assays. The pellet was suspended in buffer A (25 mM HEPES, pH 7.4, 150 mM NaCl, 60 mM MgCl2, 1 mM DTT) with 1 μM microcystin, 0.1% Triton X-100 plus a Roche Complete protease inhibitor tablet and then placed on ice for 30 min to facilitate lysis. The supernatant was collected after centrifugation (4,300 rpm, 4° C., 5 min) and used in subsequent screening and titrations experiments. For screening, the supernatant was added to ATP-sepharose beads (1:1) and incubated with agitation at 4° C. for at least 1 hr to allow binding. Following this incubation, the mixture was centrifuged, the ATP resin was washed with 9 column volumes of buffer A with 1 M NaCl and then 9 column volumes of buffer A. The ATP-sepharose medium was reconstituted as a 1:1 slurry with buffer A and then added to 96-well filter plates (50 μL/well) (Corning #3505) using a multichannel pipette (Rainin). The filter plate was on top of black 96-well catch plates (Corning #3915). An ATP dilution series (1-200 mM) was added to each plate as a positive control and DMSO was the negative control. Compounds and controls were all added to 50 μL per well in buffer A. For screening, compounds were tested in singlicate at 500 μM. The final DMSO concentration in every well was 5%. The fluorescence intensity in each well was measured on an EnVision system. Data analyses of screens were carried out in EXCEL (Microsoft, Corp.) and actives were identified as 2×background signal.
All screening positives that were verified with Western blot analysis were purchased from Enamine or Vitas-M laboratory. The purity of compounds 1-5 (shown below) was verified by high-resolution MS (Agilent). Compounds were tested in 8-point dose-response (0-500 μM) experiments in duplicate, essential as described above. The fluorescence intensity in each well was measured using an EnVision system. Dose-response analysis was performed with GraphPad Prism to acquire EC50 values. Determined EC50 values were used to calculate the observed PfPK9 Kd and reported values are the average of 2-3 independent experiments.
Stable cell line generation. The P. falciparum PK9 gene (PlasmoDB accession #PF3D7_1315100) was cloned into the pEGFP-C1 mammalian expression vector (Clontech) in frame with a […] GFP tag. For screening, HEK293 cells were transfected with the resulting PfPK9-pEGFP-C1 vector to generate HEK293-GFP-PfPK9 expressing cells using X-tremeGENE HP transfection reagent (Roche) per the manufacturer instructions. Briefly, the culture medium was replaced at 48 hours post-transfection with medium supplemented with 1 mg/mL G418 sulfate (Life Technologies) to select for stably transfected cells. Following stable cell selection, fluorescence activated cell sorting (FACS) was used to enrich for GFP-PfPK9 expressing cells. Subsequently, FACS sorted HEK293-GFP-PfPK9 cells were cultured with medium supplemented with 0.5 mg/mL G418 sulfate for all following experiments. Protein expression was verified by Western blot analysis probing for anti-GFP and by fluorescence intensity using an EnVision (PerkinElmer) system.
All 14 positive molecules were also tested for their binding affinity to PfPK9 using an optimized ATP-competitive binding assay. EC50 values ranging from low μM to low mM were observed and these EC50 values were used to derive dissociation constants as described previously. […]

The next data set deals with GCK (Homo sapiens, UniProt Q12851). The experiment in a line: Kinase profiling (Dundee), GCK. Format: biochemical. As for the experimental part:
as §2, §3

In another data set the target is CLK2 (Homo sapiens, UniProt P49760). The experiment in a line: Kinase profiling (Dundee), CLK2. It is filed as biochemical. Here is the method: as §2, §3
The next data set deals with T1, TAK1 (Homo sapiens, UniProt O43318).
T1 construct: endogenous in cells; host or cells: MDA-MB-231
The experiment in a line: Western Blot analysis of PROTAC-treated MDA-MB-231 cells, TAK1. Format: cell-based. The text has this:
TAK1 is an Hsp90 client protein, which is why its expression is likely affected in these samples. […] This effect has previously been described as prozone effect. At high PROTAC concentrations, both E3 ligase and protein are saturated individually with PROTAC, so that the complex of ligase and protein can no longer be formed.

The test system of data set [1] is P. berghei. The experiment in a line: Liver stage parasite load, luciferase-expressing P. berghei in Huh7 cells. Format: cell-based, Plasmodium berghei ANKA. The following applies: Huh7 host cells, read-out: IC50 Liver state (Huh7). Here is the method:
as §4, §1

For data set [2], the system named is K63-linked ubiquitination. As to the kind of experiment: Western blot for K63-linked ubiquitination in Plasmodium blood stage. It is filed as cell-based, P. falciparum. The following applies: 30 μM, 24 hr, blood stage parasites. As for the experimental part: P. falciparum asexual blood-stage culture. P. falciparum 3D7 isolate was maintained under standard conditions in complete culturing medium [10.44 g/L RPMI 1640 (Invitrogen), 5.94 g/L HEPES (Invitrogen), 50 mg/L hypoxanthine (Sigma), 2.02 g/L sodium bicarbonate (Sigma), 5 g/L albuMAX II (Invitrogen), 25 mg/L gentamicin (Sigma), pH 7.2]. Parasite cultures were supplied with human red blood cells (Gulf Coast Regional Blood Center) at 1% hematocrit. To obtain synchronous cultures, Plasmodium parasites (at least 50% parasites were at the early-ring stage) were pelleted at 300×g for 7 min using a low brake setting and treated with 25 volume 5% D-sorbitol (Sigma) at 37° C. for 10 min. Treated parasites were then harvested and washed with 25 volume of complete culturing medium using the aforementioned centrifugation protocol, and diluted with the complete medium to 1% hematocrit to maintain the parasite culture at 37° C. and 5% CO2.
Protein extraction and Western blot for K63-linked ubiquitination in Plasmodium blood stage. […] Total protein lysates were heated in SDS loading buffer for 5 min at 80° C., analyzed on 4-20% Tris-Glycine polyacrylamide gels (Novex, Life Technologies) and subsequently transferred to nitrocellulose membranes. […]

The test system of data set [3] is P. berghei. The experiment in a line: Liver stage parasite load, luciferase-expressing P. berghei in HepG2 cells. Format: cell-based, Plasmodium berghei ANKA. The note with it: HepG2 host cells. Here is the method:
as §4, §5, §1

Another data set concerns PfPK9. The experiment in a line: UBC13 phosphorylation by PfPK9 (ADP luminescence assay). Format: biochemical, P. falciparum. The note with it: compared to DMSO. Here is the method: Recombinant protein expression and enzyme activity assay. Recombinant GST-tagged PfPK9 was expressed in E. coli BL21(DE3) cells, purified to homogeneity, and the GST tag was cleaved with PreScission Protease (GE Healthcare). To test for inhibition of PfPK9, the ADP detection assay ADP-Glo (Promega) was used to determine ATPase activity of PfPK9 in the presence of the PfUBC13 protein substrate when treated with compounds 1 and 5. Approximately 500 nM PfPK9 was incubated with either compound (10 μM or 500 μM) for 5 min at RT in buffer containing 40 mM Tris, pH 7.5, 20 mM MgCl2, 2 mM MnCl2 and 1 mM DTT prior to assay initiation with 100 μM ATP. The assay was performed in white low-volume 384-well plates (Corning #3824) in triplicate. The assay plate was sealed and subsequently incubated for 8 hrs at 37° C. before ADP detection per manufacturer instructions. The final assay volume was 5 μL with a final concentration of 1% DMSO. A negative control was performed in 1% DMSO and heat inactivated PfPK9 (80° C. for 5 min) was used as a positive control. The luminescence intensity in each well was measured on an EnVision system. Data were normalized to the average luminescence signal of the negative control to provide relative ADP concentrations and graphs were constructed in GraphPad Prism. Data analyses were conducted from three independent experiments. […]

T1 sequence (O43318 whole entry): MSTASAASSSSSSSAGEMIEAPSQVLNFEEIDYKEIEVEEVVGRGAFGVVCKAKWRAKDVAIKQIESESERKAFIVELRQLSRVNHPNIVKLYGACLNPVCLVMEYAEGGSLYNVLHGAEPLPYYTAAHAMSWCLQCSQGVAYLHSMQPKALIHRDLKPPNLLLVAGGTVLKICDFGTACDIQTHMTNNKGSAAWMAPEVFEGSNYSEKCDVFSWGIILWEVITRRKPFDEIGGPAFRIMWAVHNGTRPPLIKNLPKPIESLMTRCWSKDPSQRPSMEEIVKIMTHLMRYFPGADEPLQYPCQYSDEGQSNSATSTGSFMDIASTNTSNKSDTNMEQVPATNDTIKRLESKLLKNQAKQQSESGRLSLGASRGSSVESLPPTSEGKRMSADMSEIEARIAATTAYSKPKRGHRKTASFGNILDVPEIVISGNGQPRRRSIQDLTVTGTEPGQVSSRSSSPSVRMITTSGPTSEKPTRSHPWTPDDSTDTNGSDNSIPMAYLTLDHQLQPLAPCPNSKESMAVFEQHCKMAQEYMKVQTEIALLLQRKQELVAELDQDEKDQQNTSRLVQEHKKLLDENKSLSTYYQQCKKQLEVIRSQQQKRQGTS
Sequence of GCK (Q12851 whole entry): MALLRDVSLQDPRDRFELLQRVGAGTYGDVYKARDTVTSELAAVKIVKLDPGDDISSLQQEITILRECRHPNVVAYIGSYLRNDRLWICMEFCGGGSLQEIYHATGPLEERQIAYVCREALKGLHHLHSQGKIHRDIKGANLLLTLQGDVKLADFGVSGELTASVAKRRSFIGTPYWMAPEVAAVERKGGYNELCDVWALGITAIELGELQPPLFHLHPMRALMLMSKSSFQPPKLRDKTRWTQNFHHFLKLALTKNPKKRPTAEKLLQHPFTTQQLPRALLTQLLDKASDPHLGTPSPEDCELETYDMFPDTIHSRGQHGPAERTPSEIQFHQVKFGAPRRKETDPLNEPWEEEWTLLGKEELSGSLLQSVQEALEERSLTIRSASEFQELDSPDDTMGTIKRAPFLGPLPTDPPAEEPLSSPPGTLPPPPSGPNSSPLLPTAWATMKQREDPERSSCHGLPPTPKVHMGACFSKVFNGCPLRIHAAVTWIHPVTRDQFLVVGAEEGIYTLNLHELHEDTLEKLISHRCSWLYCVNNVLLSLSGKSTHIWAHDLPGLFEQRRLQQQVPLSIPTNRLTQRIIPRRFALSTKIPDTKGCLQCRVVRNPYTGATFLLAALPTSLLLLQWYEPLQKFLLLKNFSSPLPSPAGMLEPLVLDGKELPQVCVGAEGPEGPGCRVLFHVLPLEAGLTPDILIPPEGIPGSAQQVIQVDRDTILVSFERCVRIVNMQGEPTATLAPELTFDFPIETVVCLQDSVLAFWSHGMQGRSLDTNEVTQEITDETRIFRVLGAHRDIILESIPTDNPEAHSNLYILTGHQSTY
Sequence of GFP-PfPK9 (Q8IEG4 entry or part of it): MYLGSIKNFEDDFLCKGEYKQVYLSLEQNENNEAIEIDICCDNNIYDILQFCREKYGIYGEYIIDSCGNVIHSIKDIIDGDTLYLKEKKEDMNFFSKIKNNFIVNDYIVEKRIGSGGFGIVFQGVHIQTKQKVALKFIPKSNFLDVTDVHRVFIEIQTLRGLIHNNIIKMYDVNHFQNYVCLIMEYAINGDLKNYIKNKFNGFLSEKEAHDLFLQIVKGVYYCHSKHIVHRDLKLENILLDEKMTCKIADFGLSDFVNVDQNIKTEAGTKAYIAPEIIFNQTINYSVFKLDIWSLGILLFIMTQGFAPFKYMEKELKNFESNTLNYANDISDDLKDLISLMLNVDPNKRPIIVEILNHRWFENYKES
Sequence of MINK1 (Q8N4C8 whole entry): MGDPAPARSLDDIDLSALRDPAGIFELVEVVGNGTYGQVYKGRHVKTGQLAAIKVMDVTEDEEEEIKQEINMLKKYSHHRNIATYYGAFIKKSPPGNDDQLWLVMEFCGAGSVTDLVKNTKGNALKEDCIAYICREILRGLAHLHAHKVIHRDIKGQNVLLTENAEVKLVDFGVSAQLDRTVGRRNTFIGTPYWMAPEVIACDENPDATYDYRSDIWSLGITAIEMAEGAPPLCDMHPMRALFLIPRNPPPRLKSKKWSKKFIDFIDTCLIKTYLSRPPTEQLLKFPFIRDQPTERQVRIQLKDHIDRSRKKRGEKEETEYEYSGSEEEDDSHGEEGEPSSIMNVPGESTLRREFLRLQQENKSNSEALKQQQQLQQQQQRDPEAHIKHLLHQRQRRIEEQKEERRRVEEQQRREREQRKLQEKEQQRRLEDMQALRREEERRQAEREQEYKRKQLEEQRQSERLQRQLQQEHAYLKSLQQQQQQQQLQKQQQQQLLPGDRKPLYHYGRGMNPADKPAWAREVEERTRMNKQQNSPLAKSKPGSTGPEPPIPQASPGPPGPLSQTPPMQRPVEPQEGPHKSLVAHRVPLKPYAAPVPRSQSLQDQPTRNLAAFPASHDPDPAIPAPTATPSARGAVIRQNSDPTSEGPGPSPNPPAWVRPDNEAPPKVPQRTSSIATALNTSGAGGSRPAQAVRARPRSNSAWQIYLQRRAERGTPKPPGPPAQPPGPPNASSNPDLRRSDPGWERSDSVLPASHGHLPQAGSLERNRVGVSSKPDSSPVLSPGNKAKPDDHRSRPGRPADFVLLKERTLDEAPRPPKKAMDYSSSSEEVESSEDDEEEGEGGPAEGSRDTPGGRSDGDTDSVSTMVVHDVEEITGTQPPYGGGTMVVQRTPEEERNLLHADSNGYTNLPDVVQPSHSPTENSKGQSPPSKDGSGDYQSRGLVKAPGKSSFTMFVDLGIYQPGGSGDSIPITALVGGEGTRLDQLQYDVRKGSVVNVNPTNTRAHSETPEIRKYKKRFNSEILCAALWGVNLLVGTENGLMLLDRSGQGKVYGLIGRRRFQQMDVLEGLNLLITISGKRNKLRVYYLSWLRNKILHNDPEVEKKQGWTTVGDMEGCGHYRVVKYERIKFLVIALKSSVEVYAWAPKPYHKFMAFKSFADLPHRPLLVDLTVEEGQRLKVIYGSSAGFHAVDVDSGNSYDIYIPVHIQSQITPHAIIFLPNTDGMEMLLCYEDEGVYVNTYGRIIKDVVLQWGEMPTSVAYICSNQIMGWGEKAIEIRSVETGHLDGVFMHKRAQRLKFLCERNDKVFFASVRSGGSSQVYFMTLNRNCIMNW
Sequence of CLK2 (P49760 whole entry): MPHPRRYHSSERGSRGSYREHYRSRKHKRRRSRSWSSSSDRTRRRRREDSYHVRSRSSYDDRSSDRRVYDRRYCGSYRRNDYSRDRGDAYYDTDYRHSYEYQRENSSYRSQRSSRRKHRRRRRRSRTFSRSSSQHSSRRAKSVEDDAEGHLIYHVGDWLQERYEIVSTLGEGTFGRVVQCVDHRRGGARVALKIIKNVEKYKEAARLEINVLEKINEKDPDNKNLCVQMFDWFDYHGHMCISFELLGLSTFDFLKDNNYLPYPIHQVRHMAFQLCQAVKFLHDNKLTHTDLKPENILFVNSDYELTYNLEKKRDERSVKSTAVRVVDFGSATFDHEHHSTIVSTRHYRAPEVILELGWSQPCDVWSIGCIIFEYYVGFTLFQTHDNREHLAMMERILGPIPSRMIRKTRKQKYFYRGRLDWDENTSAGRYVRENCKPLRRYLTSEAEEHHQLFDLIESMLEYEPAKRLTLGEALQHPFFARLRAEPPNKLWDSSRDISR

Take `CCCn1/c(=N/C(=O)c2cccc(C(N)=O)c2)[nH]c2ccccc21` [HS-206 (1), (E)-N-(1-Propyl-1,3-dihydro-2H-benzo[d]imidazol-2-ylidene)isophthalamide]: the “effect on liver cell viability” value in the data set on Huh7 cells and in the data set with HepG2 cells was “did not affect liver cell viability even at 200 μM” in each case. Further, the IC50 came out at 1.9 ± 1 µM on MINK1, 0.43 ± 0.04 µM against GCK and 0.43 ± 0.04 µM against CLK2. Further, the Kd at GFP-PfPK9 was roughly 0.2 µM.

`CCCn1/c(=N/C(=O)c2cccc(C(N)=O)c2)[nH]c2cc(/C=C/C(=O)NCCCOCCOCCOCCOCCOCCCNc3cccc4c3C(=O)N(C3CCC(=O)NC3=O)C4=O)ccc21` (stereo not shown) [HS-237]: the “protein levels (TAK1)” value on TAK1 (0.1 μM) was “reduction in protein levels”; at TAK1 (higher concentrations) it was “no effect”.

As to `Cc1nc(-c2cccs2)c(CCC(=O)Nc2cccc3cccnc23)s1` [compound 5], the “effect on liver cell viability” value in the data set with Huh7 cells and in the data set with HepG2 cells was “neither compound 4 or 5 had any significant effects on cell viability” in each case. Besides, the IC50 with P. berghei [1] (Plasmodium berghei, Huh-7, parasite load) stood at 9 µM; in the data set with P. berghei [1] (parasite load), 8.5 µM; in the data set with P. berghei [3] (Plasmodium berghei, HepG2, parasite load) it was 10 µM; in the data set with P. berghei [3] (parasite load), 9.7 µM. For the same molecule, the K63-linked ubiquitination entry in [2] is reported as “decreased K63-linked ubiquitination in blood stage parasites albeit to a lesser extent than compound 1”. Besides, the “UBC13 phosphorylation by PfPK9” value in the data set on PfPK9 was “significantly decreased”.
